Test results: publication PMC12998938, “Neutrophil store-operated Ca^2+ entry: A correctable biomarker of cystic fibrosis lung disease progression” (Journal of cystic fibrosis : official journal of the …, 2025)

Legend:
Type in all cases: cell-based, human
[1] = system: SOCE/Orai1 in non-CF peripheral blood neutrophils; assay: Fluo-4 Ca2+ assay, global thapsigargin-stimulated Ca2+ response (SOCE), non-CF neutrophils; conditions: 10 μM peptide, 3 h pre-treatment, 1 μM thapsigargin, N = 10 donors
Description: (§1) Neutrophils were immediately isolated by negative selection from deidentified blood samples using an EasySep human neutrophil isolation kit (Stem Cell Technologies) as described. Cytosolic Ca^2+ was measured using Fluo-4 as described. Protein lysate from isolated blood neutrophils was characterized by liquid chromatography with tandem mass spectrometry (LC-MS/MS) as described. Degranulation products in media were quantified by Luminex assay using a custom Bio-Plex human kit (BioRad) per the manufacturer’s protocol […]. Detailed methods for all experiments and measurements are provided in an online data supplement.
(§2) Isolated neutrophils were incubated with peptide or vehicle control for 3 h. For the final hour of treatment, cells were loaded with Fluo-4 direct (Thermofisher) for 45 min at 37°C and 15 min at room temperature as described.
Fluo-4 Ca^2+ assays. Isolated neutrophils were incubated with peptide or vehicle control for 3 h. For the final hour of treatment, cells were loaded with Fluo-4 direct (Thermofisher) for 45 min at 37°C and 15 min at room temperature. For global Ca^2+ measurements, baseline fluorescent readings were made for 2 min (1 read every 30 s) using a Tecan Infinite M1000 plate reader (ex 494 em 516 nm, bandwidth 5 nm) before thapsigargin (Sigma-Aldrich) was added and the change in emission was recorded for 10 min (1 read every 30 s). To isolate phases of store operated Ca^2+ entry, cells underwent 3 rounds of centrifugation and resuspension in Ca^2+-free Ringer’s solution to remove extracellular Ca^2+. Baseline fluo-4 fluorescence was read for 2 min before cell were stimulated with thapsigargin (Tocris). Reads continued for ~5 min before 1.2 mM Ca^2+ was added to the extracellular solution and SOCE was measured for ~10 mins. For analysis, all fluo-4 fluorescence reads are normalized to baseline.

CF neutrophils = assay: Neutrophil degranulation multiplex assay, CF neutrophils; conditions: 3 h, 1 μM thapsigargin 30 min, vs vehicle, paired t-test
Description: as §1
Multiple neutrophil functions, including neutrophil degranulation, are Ca^2+ dependent. Neutrophil degranulation results in an increase in several proteases in the lung, including neutrophil elastase, a key driver of CF lung damage. Accordingly, we investigated the impact of ELD607 on neutrophil degranulation as a marker of Ca^2+-dependent neutrophilic function. We used a multiplex assay to quantify key granule proteins released into media after a 3 h pretreatment with 10 μM ELD607 or vehicle control followed by a 30 min stimulation with 1 μM thapsigargin. Levels of myeloperoxidase (MPO; primary granules), lactoferrin (specific granules) and matrix metalloproteinase-9 (MMP9; tertiary granules) release were similar between non-CF and CF neutrophils (Fig. 4A–C).
Fig. 4. ELD607 inhibits degranulation in non-CF and CF neutrophils. Neutrophil degranulation (A-C) was assayed by measuring the concentration of representative constituents of (A) primary granules, MPO (non-CF, n = 9; CF, n = 13); (B) secondary granules, lactoferrin (non-CF, n = 12; CF, n = 17) and (C) tertiary granules, MMP-9 (non-CF, n = 9; CF, n = 12). […]
Multiplex assay. […] Supernatant was collected and analyzed for a panel of neutrophil granule proteins (MPO, lactoferrin, MMP9) using a Bio-Plex human kit (BioRad) per the manufacturer’s protocol. Plates were then analyzed using a Bio-Plex MAGPIX System (BioRad).

[2] = system: ER Ca2+ store release in non-CF neutrophils; assay: Fluo-4 ER Ca2+ release, non-CF neutrophils; conditions: 3 h pre-treatment, 1 μM thapsigargin, no extracellular Ca2+, 2 donors in triplicate
Description: as §2
Fig. 3. ELD607 inhibits SOCE in non-CF and CF neutrophils. (A) and (B) Mean changes in fluo-4 fluorescence as a marker of cytoplasmic Ca^2+ levels in non-CF and CF neutrophils respectively before and after stimulation with 1 μM thapsigargin (Tg). Before stimulation, neutrophils were exposed to vehicle (0.1% DMSO in PBS), 10 μM ELD607 or scrambled peptide (control) for 3 h. N = 10 non-CF and 21 CF donors. Stats show ELD607 vs vehicle or scrambled peptide based on color. […] Neutrophils were stimulated with thapsigargin (1 μM) in the absence of extracellular Ca^2+ to allow the release of Ca^2+ stores to be measured. Extracellular Ca^2+ was then returned so that extracellular Ca^2+ influx could be measured. (C) Mean fold change in Fluo-4 fluorescence during ER store release in non-CF and CF neutrophils. […] (E) Mean fold change in fluo-4 fluorescence during Ca^2+ influx in non-CF and CF neutrophils. […]
SOCE has 2 phases: release of Ca^2+ from ER stores and Ca^2+ influx from the extracellular space via Ca^2+ channels such as Orai1. […] Once the stores had emptied, extracellular Ca^2+ was reintroduced and Ca^2+ influx was measured (Fig. 3C–F). […]

VHDIVNMLIRG [ELD607, size-optimized SPLUNC1/α6 peptidomimetic]
inhibition of SOCE (global Ca2+ response) [1]: significantly inhibited SOCE regardless of genotype
MMP9 release (tertiary granules) (CF neutrophils; n = 12, 10 μM): significantly reduced
MPO release (primary granules) (CF neutrophils; n = 13, 10 μM): significantly reduced
lactoferrin release (specific/secondary granules) (CF neutrophils; n = 17, 10 μM): significantly reduced
inhibition of ER Ca2+ release [2]: little effect
